Measured values as given in patent US20260167637A1, “NLRP3 INFLAMMASOME INHIBITOR AND USE THEREOF” (TransThera Sciences (Nanjing), Inc., priority 2022, published 2026).
Like-named read-outs stand apart in the source and are kept apart here.

How the values were obtained:
THP-1 cell NLRP3 = target: T1, THP-1 cell NLRP3 (Homo sapiens, UniProt Q96P20); assay: Inhibitory activity against cell NLRP3 inflammasomes in THP-1 cells (LPS + nigericin, ELISA of supernatant); type: cell-based; settings: PMA-differentiated THP-1 cells, LPS 500 ng/mL 3 h, compound 1 h, nigericin 30 min; human IL-10 (so in the source) in supernatant by ELISA
T1 construct: endogenous in cells; host or cells: THP-1 cells, PMA-differentiated, stimulated with LPS and nigericin
Procedure: Experimental Example 1: Assay for Inhibitory Activity of Compounds Disclosed Herein Against Cell NLRP3 Inflammasomes
Test substances: The compounds of the present disclosure, prepared according to the methods described in the examples.
THP-1 is an immortalized human […] cell line.
Instrument: microplate reader (made by PE)
Assay Method: 1. THP-1 cells were cultured in 1640 complete medium (500 mL of 1640+56 mL of FBS+560 μL of 1000×P/S+2 μL of mercaptoethanol), and cells at passages 3-20 were used.
2. Culture plate coating: 100 μL of polylysine solution was added to a 96-well cell culture plate. After 30 min of incubation at 37° C., the solution was discarded, and the plate was washed with PBS twice for later use.
3. Induction of THP-1 differentiation: THP-1 cells were resuspended in an appropriate amount of complete medium containing 10 ng/mL PMA to form a cell suspension with a density of 5×10^5 cells/mL. The suspension was added to the 96-well plate at 100 μL/well, and the plate was incubated overnight in a 37° C. carbon dioxide cell incubator for 16 h.
4. Stimulation of THP-1: • a. Serum-free THP-1 culture medium containing LPS was added, with the final concentration being 500 ng/mL. The plate was incubated in a 37° C. carbon dioxide cell incubator for 3 h. • b. Mother liquors of the compounds to be tested with gradient concentrations were prepared with DMSO, added to the cells, and well mixed. Dilution was finally performed in a 1:1000 ratio. The plate was incubated in a 37° C. carbon dioxide cell incubator for 1 h. • c. Nigericin was added to each well, with the final concentration being […]. The plate was incubated in a carbon dioxide cell incubator at 37° C. for 30 min. • d. The medium in the wells was transferred to a new culture plate, and after 5 min of centrifugation at 3000 rpm, the supernatant was transferred to a new 96-well plate. • e. The content of human […] in the collected cell culture supernatant samples was determined with a commercial ELISA kit by following the instructions.

[1] = Stability in canine liver microsomes; type: in vitro ADME; settings: canine liver microsomes 0.5 mg protein/mL, 1 μM test substance, β-NADPH 1 mM, 37° C.; for microsomal CLint at 1 μM / half-life at 1 μM: dog; for half-life at 1 μM: read-out: Canine t1/2
Procedure: (§1) Experimental Example 2: Evaluation of Stability of Compounds Disclosed Herein in Liver Microsomes
(§2) Composition of experimental incubation system:
(§3) An appropriate amount of the compound was precisely weighed out and dissolved in DMSO to prepare a 10.0 mM stock solution. The 10.0 mM stock solution was diluted with DMSO to 1.0 mM, and then diluted with phosphate buffer (containing 3 mM MgCl2) to prepare a 10 μM test substance working solution for later use (DMSO content in the reaction system: 0.1%).
(§4) An appropriate amount of β-NADPH was precisely weighed out and then prepared into a 5 mM β-NADPH working solution using phosphate buffer (containing 3 mM MgCl2) for later use.
(§5) (1) The liver microsomes (20 mg protein/mL) were taken out from a −80° C. freezer and pre-incubated on a 37° C. water bath thermostatic oscillator for 3 min to thaw for later use.
(§6) (2) A mixed solution of the incubation system (without β-NADPH) was prepared according to “composition of experimental incubation system” described above, and pre-incubated on a 37° C. water bath thermostatic oscillator for 2 min.
(§7) (3) Control group (without β-NADPH): 10 μL of phosphate buffer (containing 3 mM MgCl2) and 40 μL of the mixed solution of the incubation system in step (2) were taken and mixed, and the mixture was vortexed for 30 s and mixed well, resulting in a total reaction volume of 50 μL; the sample was duplicated. The mixture was placed on a 37° C. water bath thermostatic oscillator for incubation, and timing was started, with termination time points set at 0 min and 60 min.
(§8) (4) Sample group: 10 μL of the β-NADPH solution (5 mM) and 40 μL of the mixed solution in step (2) were taken and mixed, resulting in a total reaction volume of 50 μL; the mixture was vortexed for 30 s and mixed well; the sample was duplicated. The mixture was placed on a 37° C. water bath thermostatic oscillator for incubation, and timing was started, with termination time points set at 0 min, 5 min, 10 min, 20 min, 30 min, and 60 min.
(§9) (5) The mixture was vortexed for 5 min and then centrifuged at 4000 rpm for 10 min.
(§10) (6) 50 μL of the supernatant was taken and added to 150 μL of water, and the resulting mixture was vortexed and mixed well before LC/MS/MS analysis.
(§11) The half-life (t1/2) and clearance rate (CL) were calculated using the following first-order kinetic formula
(§12) Notes: k denotes the slope of the logarithm of the remaining amount of a compound vs. time, and Vd denotes apparent volume of distribution.

[2] = Stability in rat liver microsomes; type: in vitro ADME; settings: rat liver microsomes 0.5 mg protein/mL, 1 μM test substance, β-NADPH 1 mM, 37° C.; for half-life at 1 μM: read-out: Rat t1/2
Procedure: as §1, §2, §3, §4, §5, §6, §7, §8, §9, §10, §11, §12

[3] = Pharmacokinetic study in mice; type: in vivo, female C57BL/6J mice; settings: female, C57BL/6J, mouse, plasma; for clearance: read-out: Cl—obs iv (clearance rate) (converted); for Vd: read-out: Vss iv (distribution volume); for bioavailability: po 10 mg/kg vs iv 5 mg/kg, read-out: F% (absolute bioavailability); for Tmax: median, read-out: Tmax po (time to peak plasma concentration); for Cmax: read-out: Cmax po (peak concentration)
Procedure: The compounds were prepared into solutions using a mixed vehicle composed of 5% dimethyl sulfoxide, 20% (30% solutol), and 75% normal saline. The compound solutions were intragastrically administered to female C57BL/6J mice at a dose of 10 mg/kg, and the blood collection time points were: 15 min, 30 min, 1 h, 2 h, 4 h, 6 h, 8 h, and 24 h.
The compounds were prepared into solutions using a mixed vehicle composed of 5% dimethyl sulfoxide, 20% (30% solutol), and 75% normal saline. The compound solutions were intravenously injected into female C57BL/6J mice at a dose of 5 mg/kg, and the blood collection time points were: 5 min, 15 min, 30 min, 1 h, 2 h, 4 h, 6 h, 8 h, and 24 h.
The samples to be tested were taken out from a −80° C. freezer, naturally thawed at room temperature, and then vortexed for 5 min.
Plasma samples of 10 μL from different individuals were accurately pipetted into 1.5 mL centrifuge tubes.
900 μL of a 100 ng/mL internal standard working solution (a solution of tolbutamide in acetonitrile) was added, and the mixture was well mixed.
After 5 min of vortexing, centrifugation was performed at 12,000 rpm for 5 min.
50 μL of the supernatant was accurately pipetted into a 96-well plate to which water was added in advance at 150 μL/well.
After 5 min of vortexing, LC-MS/MS analysis was performed.
The results of the test substance concentrations were output by Analyst 1.6.3 of AB Sciex.
Parameters such as mean, standard deviation, and coefficient of variation (excluding those output directly by Analyst 1.6.3) were calculated using Microsoft Excel. PK parameters were calculated using WinNonlin Phenoix 8.2 software NCA (Tmax was a median).

[4] = iv 5 mg/kg, read-out: AUClast iv (0-24 h)
[5] = iv 5 mg/kg, read-out: tz1/2 iv (terminal half-life) (converted)
[6] = po 10 mg/kg, read-out: AUClast po (0-24 h)
[7] = po 10 mg/kg, read-out: tz1/2 po (terminal half-life) (converted)

T1 sequence (Q96P20 whole entry): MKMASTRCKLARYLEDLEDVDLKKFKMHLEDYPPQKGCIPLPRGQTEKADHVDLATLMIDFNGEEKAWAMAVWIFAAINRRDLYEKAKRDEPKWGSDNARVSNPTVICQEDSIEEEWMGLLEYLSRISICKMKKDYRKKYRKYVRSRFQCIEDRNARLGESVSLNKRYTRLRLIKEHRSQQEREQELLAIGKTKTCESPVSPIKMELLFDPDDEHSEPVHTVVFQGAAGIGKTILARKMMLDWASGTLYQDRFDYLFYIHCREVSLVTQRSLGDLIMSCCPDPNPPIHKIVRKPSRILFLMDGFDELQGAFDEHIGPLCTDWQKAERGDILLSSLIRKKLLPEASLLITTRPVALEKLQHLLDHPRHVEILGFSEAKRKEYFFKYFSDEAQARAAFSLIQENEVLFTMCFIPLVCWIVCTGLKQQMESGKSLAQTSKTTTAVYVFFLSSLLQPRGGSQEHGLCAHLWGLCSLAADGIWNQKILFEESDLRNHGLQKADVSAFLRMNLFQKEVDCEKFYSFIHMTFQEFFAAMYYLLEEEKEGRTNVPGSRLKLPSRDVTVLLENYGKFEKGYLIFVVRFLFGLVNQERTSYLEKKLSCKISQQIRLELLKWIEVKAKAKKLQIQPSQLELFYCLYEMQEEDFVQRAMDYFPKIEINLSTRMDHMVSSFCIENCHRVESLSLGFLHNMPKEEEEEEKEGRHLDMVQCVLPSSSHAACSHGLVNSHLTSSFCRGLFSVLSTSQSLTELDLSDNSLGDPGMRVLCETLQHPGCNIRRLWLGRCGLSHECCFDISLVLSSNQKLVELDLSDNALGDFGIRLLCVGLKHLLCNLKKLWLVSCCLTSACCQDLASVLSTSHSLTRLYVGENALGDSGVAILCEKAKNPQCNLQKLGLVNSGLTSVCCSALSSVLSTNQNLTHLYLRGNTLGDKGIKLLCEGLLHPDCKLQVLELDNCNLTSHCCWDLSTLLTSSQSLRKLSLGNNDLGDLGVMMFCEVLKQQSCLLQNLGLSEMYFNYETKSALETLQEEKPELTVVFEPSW

Compound | IC50 (THP-1 cell NLRP3) | Canine t1/2 [1] | microsomal CLint at 1 μM [2] | half-life at 1 μM [2] | AUC(0-t) [3, 4] | clearance ([3]; iv 5 mg/kg) | Vd ([3]; iv 5 mg/kg) | half-life [3, 5] | bioavailability [3] | Tmax ([3]; po 10 mg/kg) | AUC(0-t) [3, 6] | Cmax ([3]; po 10 mg/kg) | half-life [3, 7] | microsomal CLint at 1 μM [1] | half-life at 1 μM [1]
CC#Cc1ccc(-c2nnc(N[C@@H]3CCCN(C)C3)c(=O)n2C)c(O)c1 [Compound 27, (R)-3-(2-hydroxy-4-(prop-1-yn-1-yl)phenyl)-4-methyl-6-((1-methylpiperidin-3-yl)amino)-1,2,4-triazin-5(4H)-one] | 5.2 nM | →∞ | 6.2 µL/min/mg | 3.73 h | 6830 ng·h/mL | 11.8 mL/min/kg | 2.39 L/kg | 9.55 h | 77.7% | 0.25 h | 10900 ng·h/mL | 5520 ng/mL | 3.99 h |  | 
[2H]C([2H])([2H])N1CCC[C@@H](Nc2cc(C)c(-c3ccc(C#C)cc3O)nn2)C1 [Compound 84, (R)-5-ethynyl-2-(4-methyl-6-((1-(methyl-d3)piperidin-3-yl)amino)pyridazin-3-yl)phenol] | 0.2 nM |  | 4 µL/min/mg | 5.78 h | 5590 ng·h/mL | 14.8 mL/min/kg | 3.02 L/kg | 3.81 h | 92.7% | 0.5 h | 10400 ng·h/mL | 1910 ng/mL | 3.1 h | 4 µL/min/mg | 5.78 h
C#Cc1ccc(-c2nnc(N[C@@H]3CCCN(CCO)C3)nc2C)c(O)c1 [Compound 99, (R)-5-ethynyl-2-(3-((1-(2-hydroxyethyl)piperidin-3-yl)amino)-5-methyl-1,2,4-triazin-6-yl)phenol] | 0.7 nM |  | 3.2 µL/min/mg | 7.22 h |  |  |  |  |  |  |  |  |  | 6.6 µL/min/mg | 3.5 h
C#Cc1ccc(-c2nnc(N[C@@H]3CCCN(CCO)C3)nc2C2CC2)c(O)c1 [Compound 100, (R)-2-(5-cyclopropyl-3-((1-(2-hydroxyethyl)piperidin-3-yl)amino)-1,2,4-triazin-6-yl)-5-ethynylphenol] | 2.4 nM |  | 8.4 µL/min/mg | 2.75 h | 4460 ng·h/mL | 18 mL/min/kg | 2.41 L/kg | 1.65 h | 68.4% | 0.25 h | 6280 ng·h/mL | 1720 ng/mL | 3.63 h | 2.8 µL/min/mg | 8.25 h
C#Cc1ccc(-c2nnc(N[C@@H]3CCCN(CC)C3)cc2C)c(O)c1 [Compound 89, (R)-2-(6-((1-ethylpiperidin-3-yl)amino)-4-methylpyridazin-3-yl)-5-ethynylphenol] | 0.2 nM |  | 8 µL/min/mg | 2.88 h |  |  |  |  |  |  |  |  |  | 6.2 µL/min/mg | 3.73 h
[2H]C([2H])([2H])N1CCC[C@@H](Nc2cc(C3CC3)c(-c3ccc(C#C)cc3O)nn2)C1 [Compound 85, (R)-2-(4-cyclopropyl-6-((1-(methyl-d3)piperidin-3-yl)amino)pyridazin-3-yl)-5-ethynylphenol] | 0.6 nM |  | 4.6 µL/min/mg | 5.02 h | 15100 ng·h/mL | 5.32 mL/min/kg | 1.85 L/kg | 5.55 h | 94.4% | 1 h | 29100 ng·h/mL | 3540 ng/mL | 4.26 h | 5.2 µL/min/mg | 4.45 h
C#Cc1ccc(-c2nnc(N[C@@H]3CCCN(CC)C3)c(=O)n2C)c(O)c1 [Compound 93, (R)-6-((1-ethylpiperidin-3-yl)amino)-3-(4-ethynyl-2-hydroxyphenyl)-4-methyl-1,2,4-triazin-5(4H)-one] | 1.4 nM |  | 5.6 µL/min/mg | 4.13 h |  |  |  |  |  |  |  |  |  | 5 µL/min/mg | 4.62 h
